In US11655235B2, “Pyrrolidine and piperidine compounds” (YUHAN CORPORATION, priority 2019, dated 2023):
Where two headings read alike, the source gives them in different places.

Experiments:
Type in all cases: biochemical
recombinant human DPP9 = target: T1, recombinant human DPP9 (Homo sapiens, UniProt Q86TI2); assay: DPP9 inhibition, fluorogenic substrate H-Gly-Pro-AMC
T1 construct: purchased R&D Systems
Method in brief: (§1)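 Enzyme per reaction: 50 ng DPP9, 20 ng DPP8, 10 ng each DPP7 and PREP. Compounds were serially diluted (8 points, up to 0.5% DMSO) and incubated at 25 °C.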

recombinant human PREP = target: T2, recombinant human PREP (Homo sapiens, UniProt P48147); assay: PREP inhibition, fluorogenic substrate Z-Gly-Pro-AMC; details: Inhibitory Activity (IC50, nM) PREP
T2 construct: purchased R&D System
T2 sequence (P48147 1-710): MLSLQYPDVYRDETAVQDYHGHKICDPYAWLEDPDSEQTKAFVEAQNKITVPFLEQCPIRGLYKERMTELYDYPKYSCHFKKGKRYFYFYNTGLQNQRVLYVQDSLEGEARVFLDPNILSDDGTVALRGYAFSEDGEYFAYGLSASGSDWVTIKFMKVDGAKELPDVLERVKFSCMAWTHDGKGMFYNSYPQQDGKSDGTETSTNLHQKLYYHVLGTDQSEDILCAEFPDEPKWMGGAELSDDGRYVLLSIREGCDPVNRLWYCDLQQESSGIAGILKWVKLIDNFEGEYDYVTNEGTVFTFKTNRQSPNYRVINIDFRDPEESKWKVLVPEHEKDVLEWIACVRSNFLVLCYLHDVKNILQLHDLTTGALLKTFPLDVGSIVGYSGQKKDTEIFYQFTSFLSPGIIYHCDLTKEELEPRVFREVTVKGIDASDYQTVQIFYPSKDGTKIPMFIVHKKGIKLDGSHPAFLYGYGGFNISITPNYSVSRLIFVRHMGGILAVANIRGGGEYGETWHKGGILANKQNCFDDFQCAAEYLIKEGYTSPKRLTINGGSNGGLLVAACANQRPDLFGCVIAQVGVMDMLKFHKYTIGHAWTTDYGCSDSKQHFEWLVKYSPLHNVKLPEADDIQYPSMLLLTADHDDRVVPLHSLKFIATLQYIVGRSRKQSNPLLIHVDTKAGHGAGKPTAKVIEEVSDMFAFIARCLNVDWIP
Method in brief: as §1

recombinant human DPP8 = target: T3, recombinant human DPP8 (Homo sapiens, UniProt Q6V1X1); assay: DPP8 inhibition, fluorogenic substrate Z-Ala-Pro-AMC
T3 construct: purchased PBS Bioscience
T3 sequence (Q6V1X1 whole entry): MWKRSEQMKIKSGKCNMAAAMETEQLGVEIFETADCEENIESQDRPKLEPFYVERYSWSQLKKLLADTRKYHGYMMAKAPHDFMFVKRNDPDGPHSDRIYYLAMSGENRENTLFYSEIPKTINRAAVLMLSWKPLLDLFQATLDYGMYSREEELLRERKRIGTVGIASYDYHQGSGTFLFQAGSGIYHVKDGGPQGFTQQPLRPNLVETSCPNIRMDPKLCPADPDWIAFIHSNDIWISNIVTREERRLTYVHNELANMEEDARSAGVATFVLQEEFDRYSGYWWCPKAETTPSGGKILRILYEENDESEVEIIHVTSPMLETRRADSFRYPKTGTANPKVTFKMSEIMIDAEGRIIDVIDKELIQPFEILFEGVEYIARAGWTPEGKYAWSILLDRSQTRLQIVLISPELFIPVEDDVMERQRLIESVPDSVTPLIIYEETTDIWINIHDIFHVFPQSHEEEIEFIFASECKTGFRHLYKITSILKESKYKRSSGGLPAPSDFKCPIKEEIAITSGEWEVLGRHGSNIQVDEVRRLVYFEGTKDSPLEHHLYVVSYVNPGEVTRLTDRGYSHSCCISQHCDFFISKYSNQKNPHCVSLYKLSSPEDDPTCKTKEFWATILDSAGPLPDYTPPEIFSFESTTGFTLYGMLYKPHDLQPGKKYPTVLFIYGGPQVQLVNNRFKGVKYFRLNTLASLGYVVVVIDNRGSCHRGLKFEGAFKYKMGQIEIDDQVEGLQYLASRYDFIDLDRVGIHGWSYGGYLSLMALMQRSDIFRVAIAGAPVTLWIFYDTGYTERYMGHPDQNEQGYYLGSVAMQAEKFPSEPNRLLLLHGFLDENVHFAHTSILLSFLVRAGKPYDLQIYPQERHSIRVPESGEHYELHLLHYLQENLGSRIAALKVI
Procedure: The compounds according to the present technology were evaluated in terms of the inhibitory effect on the activity of dipeptidyl peptidases including FAP by using a substrate producing fluorescent substances upon enzymatic decomposition. The test was conducted at 25° C. to get a final reaction volume of 100 μL in a 96 black well plate. […] Briefly, the test compounds were dissolved in dimethyl sulfoxide (DMSO) at a concentration of 20 mM and then subjected to serial dilution, thereby creating an 8 point curve. As for the control group, a 6 point curve created by serial dilution of Talabostat in the same buffer solution was used. Fluorescence intensity was measured using a microplate reader (Flexstation3, Molecular Devices) under the wavelength condition exciting at 380 nm and reading the emission at 460 nm. The inhibitory effect of the test compounds was measured as a decrease (%) in the signal rate as compared to the control group without any inhibitor. Data was fixed to a logistic model with four variables and IC50 value was calculated using GraphPad Prism program. As for recombinant human DPP4 (R&D Systems), 25 mM tris (pH 8.0) buffer as a buffer solution and H-Gly-Pro-AMC (Bachem) as a substrate were used. As for recombinant human DPP7 (R&D Systems), 25 mM MES (pH 6.0) buffer as a buffer solution and Lys-Pro-AMC (Bachem) as a substrate were used. As for recombinant human DPP8 (PBS Bioscience), as a buffer solution, a 10 mM tris (pH 7.4) buffer comprising 10 mM of magnesium chloride and 0.05% of Tween 20, and Z-Ala-Pro-AMC (BPS Bioscience) as a substrate were used. As for recombinant human DPP9 (R&D Systems), a 25 mM tris (pH 8.0) buffer as a buffer solution and H-Gly-Pro-AMC (Bachem) as a substrate were used. As for recombinant human PREP (R&D System), as a buffer solution, a 25 mM tris (pH 7.5) buffer comprising 250 mM sodium chloride and 2.5 mM DTT (Dithiolthreitol), and Z-Gly-Pro-AMC (Bachem) as a substrate were used. The evaluation was made by using 10 ng of DPP4, PDD7, and PREP, 20 ng of DPP8, and 50 ng of DPP9 based on the final reaction. In the evaluation of DPP4, the test compounds were subjected to serial dilution in a buffer under the condition containing up to 0.1% of DMSO. In the evaluation of DPP7, DPP8, DPP9, and PREP, the test compounds were subjected to serial dilution in each buffer under the condition containing up to 0.5% of DMSO.

recombinant human DPP7 = target: T4, recombinant human DPP7 (Homo sapiens, UniProt Q9UHL4); assay: DPP7 inhibition, fluorogenic substrate Lys-Pro-AMC
T4 construct: purchased R&D Systems
Method in brief: as §1

DPP4 = DPP4 (Homo sapiens, UniProt P27487); assay: DPP4 inhibition, fluorogenic substrate H-Gly-Pro-AMC; parameters: purchased R&D Systems; details: 25° C., H-Gly-Pro-AMC substrate
DPP4, sequence (P27487 whole entry): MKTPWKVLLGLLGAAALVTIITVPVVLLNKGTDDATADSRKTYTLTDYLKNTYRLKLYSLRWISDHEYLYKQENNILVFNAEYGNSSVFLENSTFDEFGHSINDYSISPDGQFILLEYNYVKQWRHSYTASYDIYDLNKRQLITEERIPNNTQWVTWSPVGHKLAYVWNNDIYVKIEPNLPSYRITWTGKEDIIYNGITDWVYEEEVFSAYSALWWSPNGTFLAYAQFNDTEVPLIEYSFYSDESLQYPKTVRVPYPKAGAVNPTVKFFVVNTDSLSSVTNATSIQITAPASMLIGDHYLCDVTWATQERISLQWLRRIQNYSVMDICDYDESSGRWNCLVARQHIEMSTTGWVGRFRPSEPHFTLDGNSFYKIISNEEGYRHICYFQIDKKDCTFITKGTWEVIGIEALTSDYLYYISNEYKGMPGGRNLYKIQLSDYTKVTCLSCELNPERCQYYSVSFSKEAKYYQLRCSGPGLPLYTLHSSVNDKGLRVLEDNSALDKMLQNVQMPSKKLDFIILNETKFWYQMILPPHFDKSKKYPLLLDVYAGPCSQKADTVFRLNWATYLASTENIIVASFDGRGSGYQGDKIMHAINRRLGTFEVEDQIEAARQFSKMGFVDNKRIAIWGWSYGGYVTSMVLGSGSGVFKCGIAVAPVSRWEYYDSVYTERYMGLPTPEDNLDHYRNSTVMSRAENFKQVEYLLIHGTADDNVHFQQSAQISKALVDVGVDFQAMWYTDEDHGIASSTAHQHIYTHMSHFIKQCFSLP

Recombinant human FAP = target: T5, Recombinant human FAP (Homo sapiens, UniProt Q12884); assay: FAP inhibition, fluorogenic substrate Z-Gly-Pro-AMC
T5 construct: purchased R&D systems
T5 sequence (Q12884 1-760): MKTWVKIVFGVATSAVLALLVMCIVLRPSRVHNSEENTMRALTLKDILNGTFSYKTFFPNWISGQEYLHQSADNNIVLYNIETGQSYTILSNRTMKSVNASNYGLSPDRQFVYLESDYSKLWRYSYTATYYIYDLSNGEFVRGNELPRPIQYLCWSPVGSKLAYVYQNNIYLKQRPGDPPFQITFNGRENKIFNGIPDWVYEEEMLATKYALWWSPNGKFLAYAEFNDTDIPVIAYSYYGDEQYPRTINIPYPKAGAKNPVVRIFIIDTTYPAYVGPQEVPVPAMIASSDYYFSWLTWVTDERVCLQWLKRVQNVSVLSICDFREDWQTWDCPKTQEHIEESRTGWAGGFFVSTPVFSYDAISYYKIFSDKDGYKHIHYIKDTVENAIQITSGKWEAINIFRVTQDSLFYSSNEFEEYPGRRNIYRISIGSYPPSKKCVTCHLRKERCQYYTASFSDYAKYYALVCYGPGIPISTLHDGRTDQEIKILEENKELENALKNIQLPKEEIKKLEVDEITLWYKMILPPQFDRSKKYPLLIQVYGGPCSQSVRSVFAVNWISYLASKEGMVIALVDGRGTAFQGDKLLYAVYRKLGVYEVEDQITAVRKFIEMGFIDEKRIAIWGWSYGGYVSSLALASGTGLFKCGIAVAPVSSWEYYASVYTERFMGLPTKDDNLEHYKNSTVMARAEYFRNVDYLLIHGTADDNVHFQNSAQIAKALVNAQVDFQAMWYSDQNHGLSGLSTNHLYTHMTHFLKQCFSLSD
Method in brief: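 Recombinant human FAP, 10 ng per reaction, in 50 mM Tris pH 7.5 with 1 M NaCl and 1 mg/ml BSA at 25° C; substrate Z-Gly-Pro-AMC, ≤0.1% DMSO. AMC fluorescence read at ex 380/em 460 nm; % signal-rate decrease vs no-inhibitor control, 8-point curves fitted to a four-parameter logistic for IC50.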

[1] = 25° C., H-Gly-Pro-AMC substrate
[2] = 25° C., Z-Gly-Pro-AMC substrate
[3] = 25° C., Z-Ala-Pro-AMC substrate
[4] = recombinant human FAP, substrate Z-Gly-Pro-AMC

T1 sequence (Q86TI2 whole entry): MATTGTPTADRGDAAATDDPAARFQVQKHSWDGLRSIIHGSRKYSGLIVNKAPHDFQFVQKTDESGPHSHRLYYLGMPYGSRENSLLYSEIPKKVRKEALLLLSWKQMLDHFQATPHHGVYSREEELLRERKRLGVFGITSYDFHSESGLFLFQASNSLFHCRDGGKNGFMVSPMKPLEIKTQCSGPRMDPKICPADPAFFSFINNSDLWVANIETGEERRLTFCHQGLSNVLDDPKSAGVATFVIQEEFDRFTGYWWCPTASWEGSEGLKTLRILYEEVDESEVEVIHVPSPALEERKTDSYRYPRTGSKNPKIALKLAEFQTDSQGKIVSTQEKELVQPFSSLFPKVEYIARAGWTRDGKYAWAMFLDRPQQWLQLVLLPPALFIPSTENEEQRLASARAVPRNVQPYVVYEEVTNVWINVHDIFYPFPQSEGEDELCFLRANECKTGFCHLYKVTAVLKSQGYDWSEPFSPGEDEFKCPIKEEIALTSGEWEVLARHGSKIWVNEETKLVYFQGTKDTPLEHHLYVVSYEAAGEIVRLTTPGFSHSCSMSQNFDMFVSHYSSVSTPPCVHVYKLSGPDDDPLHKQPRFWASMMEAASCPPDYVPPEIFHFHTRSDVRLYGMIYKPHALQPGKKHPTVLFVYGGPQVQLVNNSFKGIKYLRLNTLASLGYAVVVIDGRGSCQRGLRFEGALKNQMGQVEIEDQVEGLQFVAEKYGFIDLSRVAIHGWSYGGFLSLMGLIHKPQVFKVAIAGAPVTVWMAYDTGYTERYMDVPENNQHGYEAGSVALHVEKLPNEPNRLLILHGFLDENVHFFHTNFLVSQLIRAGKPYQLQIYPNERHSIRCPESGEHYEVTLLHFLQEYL

Row | SMILES | IC50 (recombinant human DPP9; [1]) [µM] | IC50 (recombinant human PREP; [2]) [nM] | IC50 (recombinant human DPP8; [3]) [µM] | IC50 (recombinant human DPP7) [nM] | IC50 (DPP4) [nM] | IC50 (Recombinant human FAP; [2]) [nM] | IC50 (recombinant human DPP9; recombinant human DPP9) [µM] | IC50 (recombinant human PREP; recombinant human PREP) [nM] | IC50 (recombinant human DPP8; recombinant human DPP8) [µM] | IC50 (recombinant human DPP7; recombinant human DPP7) [nM] | IC50 (Recombinant human FAP; [4]) [nM]
1 | N#C[C@@H]1CC(F)(F)CN1C(=O)CN1CC[C@H](Nc2cnc3ccccc3c2)C1 [Example 6, (S)-4,4-difluoro-1-(2-((S)-3-(quinolin-3-ylamino)pyrrolidin-1-yl)acetyl)pyrrolidine-2-carbonitrile] | 5.71 | > 100000 | 7.89 | 46.2 | > 1000 | 1.83 |  |  |  |  | 
2 | N#C[C@@H]1CC(F)(F)CN1C(=O)CN1CC[C@H](Nc2ccnc3ccccc23)C1 [Example 7, (S)-4,4-difluoro-1-(2-((S)-3-(quinolin-4-ylamino)pyrrolidin-1-yl)acetyl)pyrrolidine-2-carbonitrile] | 12.8 | > 100000 | 97.6 | < 30 | > 1000 | 0.46 |  |  |  |  | 
3 | N#C[C@@H]1CC(F)(F)CN1C(=O)CN1CC[C@H](Nc2cncc3ccccc23)C1 [Example 8, (S)-4,4-difluoro-1-(2-((S)-3-(isoquinolin-4-ylamino)pyrrolidin-1-yl)acetyl)pyrrolidine-2-carbonitrile] | 0.488 | > 100000 | 5.79 | < 30 | > 1000 | 1.1 |  |  |  |  | 
4 | N#C[C@@H]1CC(F)(F)CN1C(=O)CN1CC[C@H](Nc2cccc3sccc23)C1 [Example 9, (S)-1-(2-((S)-3-(benzo[b]thiophen-4-ylamino)pyrrolidin-1-yl)acetyl)-4,4-difluoropyrrolidine-2-carbonitrile] | 12.3 | > 100000 | 0.213 | 75.1 | > 1000 | 1.1 |  |  |  |  | 
5 | COc1cccc2cc(N(C)[C@H]3CCN(CC(=O)N4CCC[C@H]4C#N)C3)cnc12 [Example 154, (S)-1-(2-((S)-3-((8-methoxyquinolin-3-yl)(methyl)amino)pyrrolidin-1-yl)acetyl)pyrrolidine-2-carbonitrile] | 41.7 | 970 | 22 | 3310 |  | 5.2 |  |  |  |  | 
6 | N#C[C@@H]1CCCN1C(=O)CN1CC[C@@H](Nc2cccc3ncccc23)C1 [Example 161, (S)-1-(2-((R)-3-(quinolin-5-ylamino)pyrrolidin-1-yl)acetyl)pyrrolidine-2-carbonitrile] |  |  |  |  |  |  | 25.4 | 4250 | 41.5 | 5450 | 1.4

Second part, the compound after the results:

Row | IC50 (recombinant human DPP9; [1]) [µM] | IC50 (recombinant human PREP; [2]) [nM] | IC50 (recombinant human DPP8; [3]) [µM] | IC50 (recombinant human DPP7) [nM] | IC50 (DPP4) [nM] | IC50 (Recombinant human FAP; [2]) [nM] | IC50 (recombinant human DPP9; recombinant human DPP9) [µM] | IC50 (recombinant human PREP; recombinant human PREP) [nM] | IC50 (recombinant human DPP8; recombinant human DPP8) [µM] | IC50 (recombinant human DPP7; recombinant human DPP7) [nM] | IC50 (Recombinant human FAP; [4]) [nM] | SMILES
7 |  |  |  |  |  |  | 14.9 | 2610 | ≥ 100 | 2340 | 5.2 | N#C[C@@H]1CCCN1C(=O)CN1CC[C@@H](Nc2ccc3ncccc3c2)C1 [Example 162, (2S)-1-[2-[(3R)-3-(6-quinolylamino)pyrrolidin-1-yl]acetyl]pyrrolidine-2-carbonitrile]
8 |  |  |  |  |  |  | 7.55 | 3970 | ≥ 100 | 1150 | 2.3 | N#C[C@@H]1C[C@H](F)CN1C(=O)CN1CC[C@@H](Nc2cnc3ccccc3c2)C1 [Example 165, (2S,4S)-4-fluoro-1-[2-[(3R)-3-(3-quinolylamino)pyrrolidin-1-yl]acetyl]pyrrolidine-2-carbonitrile]
9 |  |  |  |  |  |  | 1.83 | 769 | 6.16 | 958 | 2.1 | N#C[C@@H]1C[C@H](F)CN1C(=O)CN1CC[C@@H](Nc2cccc3ncccc23)C1 [Example 166, (2S,4S)-4-fluoro-1-[2-[(3R)-3-(5-quinolylamino)pyrrolidin-1-yl]acetyl]pyrrolidine-2-carbonitrile]
10 |  |  |  |  |  |  | 2.56 | 5860 | 6.28 | 2040 | 1.4 | N#C[C@@H]1C[C@H](F)CN1C(=O)CN1CC[C@@H](Nc2ccc3ncccc3c2)C1 [Example 167, (2S,4S)-4-fluoro-1-[2-[(3R)-3-(6-quinolylamino)pyrrolidin-1-yl]acetyl]pyrrolidine-2-carbonitrile]
11 |  |  |  |  |  |  | 2.7 | 7980 | 14 | 302 | 3.5 | N#C[C@@H]1C[C@H](F)CN1C(=O)CN1CC[C@@H](Nc2ccnc3ccccc23)C1 [Example 170, (2S,4S)-4-fluoro-1-[2-[(3R)-3-(4-quinolylamino)pyrrolidin-1-yl]acetyl]pyrrolidine-2-carbonitrile]
12 |  |  |  |  |  |  | 7.35 | 16400 | ≥ 100 | 1340 | 1.9 | N#C[C@@H]1C[C@H](F)CN1C(=O)CN1CCC(Nc2cncc3ccncc23)CC1 [Example 360, (2S,4S)-4-fluoro-1-[2-[4-(2,6-naphthyridin-4-ylamino)-1-piperidyl]acetyl]pyrrolidine-2-carbonitrile]
13 |  |  |  |  |  |  | 4.58 | 409 | ≥ 100 | 314 | 2.7 | N#C[C@@H]1C[C@H](F)CN1C(=O)CN1CCC(Nc2cncc3c(Cl)cccc23)CC1 [Example 361, (2S,4S)-1-[2-[4-[(8-chloro-4-isoquinolyl)amino]-1-piperidyl]acetyl]-4-fluoro-pyrrolidine-2-carbonitrile]
